Measurements: US7141383B2, “EDG8 receptor, its preparation and use” (Sanofi-Aventis Deutschland GmbH, priority 2000, dated 2006)
Each block holds one compound with its values, some of them ahead of it.

How the values were obtained:
human EDG8 [1] = target: T1, human EDG8 (Homo sapiens, UniProt Q9H228); assay: FLIPR intracellular Ca2+ mobilization in CHO cells transiently transfected with EDG8; format: cell-based; design: The 1197 bp PCR product was cloned into the pCDNA3.1(+) mammalian expression vector; expressed in transfected cells; host or cells: CHO-K1, transient transfection; details: for EDG8-mediated increase in intracellular Ca2+ by lysophospholipid mediators: CHO cells transiently transfected with EDG8 and Gα16 or Gαqi5, lipids at 10, 100, 1000 nM
Procedure: FIG. 3: Effects of S1P, LPA and related lysophospholipid mediators on EDG8-mediated increase in intracellular Ca^2+. CHO-cells were cotransfected with EDG8 and the G protein α subunits Gqi5 (upper panel) and G16 (lower panel) and rises in [Ca^2+]i were recorded with the FLIPR as described in Experimental procedures. The different lipids were applied in concentrations of 10, 100 and 1000 nM, respectively. Data are means of quadruplicate determinations of a representative experiment.
CHO-K1 cells were grown in basal ISCOVE medium supplemented with 10% fetal bovine serum at 37° C. in a humidified 5% CO2 incubator. For transfections, 2×10^5 cells were seeded into 35-mm dishes. About 24 hr later cells were transiently transfected at 50–80% confluency with the indicated receptor and G-protein constructs (1 μg of plasmid DNA each) using the Lipofectamine transfection reagent and the supplied protocol (GIBCO). 18–24 hr after transfection cells were seeded into 96well plates at a density of 50,000 cells per well and cultured for 18–24 additional hr until used in the functional FLIPR assays.
Twenty-four hours after transfection, cells were splitted into 96-well, black-wall microplates (Corning) at a density of 50,000 cells per well. 18–24 hr later, cells were loaded with 95 μl of HBSS containing 20 mM Hepes, 2.5 mM probenecid, 4 μM fluorescent calcium indicator dye Fluo4 (Molecular Probes) and 1% fetal bovine serum for 1 h (37° C., 5% CO2). Cells were washed three times with HBSS containing 20 mM Hepes and 2.5 mM probenecid in a cell washer. After the final wash, the solution was aspirated to a residual volume of 100 μl per 96 well. Lipid ligands were dissolved in DMSO as 2 mM stock solutions (treated with ultrasound when necessary) and diluted at least 1:100 into HBSS containing 20 mM HEPES, 2.5 mM probenecid and 0.4 mg/ml fatty acid free bovine serum albumine. Lipids were aliquoted as 2× solutions into a 96 well plate prior to the assay. The fluorometric imaging plate reader (FLIPR, Molecular Devices) was programmed to transfer 100 μl from each well of the ligand microplate to each well of the cellplate and to record fluorescence during 3 min in 1 second intervals during the first minute and 3 second intervals during the last two minutes. Total fluorescence counts from the 18-s to 37-s time points are used to determine agonist activity. The instrument software normalizes the fluorescent reading to give equivalent initial readings at time zero.

rat EDG8 = target: T2, rat EDG8 (Rattus norvegicus, UniProt Q9JKM5); assay: Effect of inhibitor alone on [Ca2+]i during preincubation, cells cotransfected with rat EDG8 and Gαqi5; format: cell-based; details: 3 minutes, before 1 μM S1P
T2 construct: expressed in transfected cells
Procedure: (§1) FIG. 9: Inhibition of S1P mediated intracellular calcium release by suramin and NF023 (8,8′-(carbonylbis(imino-3,1-phenylene))bis-(1,3,5-naphatlenetrisulfonic acid)) in cells transiently cotransfected with human EDG8 and Gαqi5 (A) and rat EDG8 and Gαqi5 (B). […] Cells were then stimulated with 1 μM S1P and in [Ca^2+]i measured with the FLIPR as described in the method section. Peak fluorescence counts were normalized and background responses of Gαqi5-transfected cells were subtracted. S1P-mediated calcium release in the absence of inhibitor was set 100%. Data are means±SE of 4–7 independent experiments.
(§2) Twenty-four hours after transfection, cells were splitted into 96-well, black-wall microplates (Corning) at a density of 50,000 cells per well. […] The fluorometric imaging plate reader (FLIPR, Molecular Devices) was programmed to transfer 100 μl from each well of the ligand microplate to each well of the cellplate and to record fluorescence during 3 min in 1 second intervals during the first minute and 3 second intervals during the last two minutes. Total fluorescence counts from the 18-s to 37-s time points are used to determine agonist activity. The instrument software normalizes the fluorescent reading to give equivalent initial readings at time zero.

human EDG8 [2] = target: T1, human EDG8; assay: Effect of inhibitor alone on [Ca2+]i during preincubation, cells cotransfected with human EDG8 and Gαqi5; format: cell-based; design: The 1197 bp PCR product was cloned into the pCDNA3.1(+) mammalian expression vector; expressed in transfected cells; details: 3 minutes, before 1 μM S1P
Procedure: as §1, §2

EDG3 receptor = EDG3 receptor (Homo sapiens, UniProt Q99500); assay: FLIPR intracellular Ca2+ mobilization in CHO cells transfected with EDG3; format: cell-based; details: transiently transfected CHO cells; 10, 100, 1000 nM
Procedure: (§3) FIGS. 2A–F: Mobilization of intracellular Ca^2+ by S1P (10, 100 and 1000 nM) mediated by the EDG1, 3, 5, 6 and 8 receptor in CHO cells, cotransfected with empty vector DNA as a control or the indicated G-protein α subunits.
(§4) A: S1P-induced Ca^2+-response in CHO cells transfected with vector DNA alone or the G protein α subunits Gq, G16 and Gqi5. B-F: S1P-induced Ca^2+-response in CHO cells transfected with the indicated EDG-receptor subtypes. Agonist-mediated changes of intracellular Ca^2+ were measured with the FLIPR using the Ca^2+-sensitive dye FLUO4 as described in Experimental procedures. Fluorescence of transfected cells loaded with FLUO4 was recorded before and after addition of S1P, applied in the indicated concentrations. Data are expressed as means of quadruplicate determinations in a single experiment.
(§5) CHO-K1 cells were grown in basal ISCOVE medium supplemented with 10% fetal bovine serum at 37° C. in a humidified 5% CO2 incubator. For transfections, 2×10^5 cells were seeded into 35-mm dishes. About 24 hr later cells were transiently transfected at 50–80% confluency with the indicated receptor and G-protein constructs (1 μg of plasmid DNA each) using the Lipofectamine transfection reagent and the supplied protocol (GIBCO). […]

EDG6 receptor = EDG6 receptor (Homo sapiens, UniProt O95977); assay: FLIPR intracellular Ca2+ mobilization in CHO cells transfected with EDG6; format: cell-based; details: absence of any cotransfected G-protein α subunit
Procedure: as §3, §4, §5

EDG5 receptor = target: T3, EDG5 receptor (Homo sapiens, UniProt O95136); assay: FLIPR intracellular Ca2+ mobilization in CHO cells transfected with EDG5; format: cell-based; details: transiently transfected CHO cells; 10, 100, 1000 nM
T3 construct: expressed in transfected cells; host or cells: CHO-K1, transient transfection
Procedure: as §3, §4, §5

EDG1 receptor = EDG1 receptor (Homo sapiens, UniProt P21453); assay: FLIPR intracellular Ca2+ mobilization in CHO cells transfected with EDG1; format: cell-based; details: transiently transfected CHO cells; 10, 100, 1000 nM
Procedure: as §3, §4, §5

CHO cells = assay: FLIPR intracellular Ca2+ mobilization in CHO cells without EDG receptor (vector or G protein alpha subunits only); format: cell-based, chinese hamster
Procedure: as §3, §4, §5

T1 sequence (Q9H228 whole entry): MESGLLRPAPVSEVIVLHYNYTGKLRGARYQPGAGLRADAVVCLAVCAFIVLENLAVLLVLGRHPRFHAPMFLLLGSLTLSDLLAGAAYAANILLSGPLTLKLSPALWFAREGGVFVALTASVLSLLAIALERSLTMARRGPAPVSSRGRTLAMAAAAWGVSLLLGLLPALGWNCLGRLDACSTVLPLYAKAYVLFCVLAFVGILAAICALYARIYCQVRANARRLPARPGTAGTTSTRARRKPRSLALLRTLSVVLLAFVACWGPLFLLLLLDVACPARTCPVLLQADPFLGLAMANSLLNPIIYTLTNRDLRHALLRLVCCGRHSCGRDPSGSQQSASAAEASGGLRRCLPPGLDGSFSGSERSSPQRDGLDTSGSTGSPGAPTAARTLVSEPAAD
Chain of EDG3 receptor (Q99500 whole entry): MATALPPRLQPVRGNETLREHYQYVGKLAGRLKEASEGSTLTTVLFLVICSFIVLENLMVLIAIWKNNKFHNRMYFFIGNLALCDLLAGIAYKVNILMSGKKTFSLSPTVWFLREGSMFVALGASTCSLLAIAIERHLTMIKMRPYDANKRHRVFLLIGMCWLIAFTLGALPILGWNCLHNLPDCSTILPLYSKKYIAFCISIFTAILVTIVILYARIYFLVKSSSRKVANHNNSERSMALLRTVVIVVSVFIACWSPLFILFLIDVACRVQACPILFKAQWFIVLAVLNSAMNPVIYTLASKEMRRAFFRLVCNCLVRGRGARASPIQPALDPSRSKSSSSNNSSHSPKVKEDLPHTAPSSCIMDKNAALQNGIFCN
Chain of EDG1 receptor (P21453 whole entry): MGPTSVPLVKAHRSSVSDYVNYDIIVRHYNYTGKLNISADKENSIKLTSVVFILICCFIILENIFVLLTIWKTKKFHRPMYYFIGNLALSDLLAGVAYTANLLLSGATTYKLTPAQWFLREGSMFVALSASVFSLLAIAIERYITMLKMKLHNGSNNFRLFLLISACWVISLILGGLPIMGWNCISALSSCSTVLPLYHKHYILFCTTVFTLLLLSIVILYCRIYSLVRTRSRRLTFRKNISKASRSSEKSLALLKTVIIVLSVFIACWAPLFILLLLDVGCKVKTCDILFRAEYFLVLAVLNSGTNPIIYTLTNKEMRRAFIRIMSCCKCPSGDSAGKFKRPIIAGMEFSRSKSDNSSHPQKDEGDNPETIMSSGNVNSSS
T2 sequence (Q9JKM5 whole entry): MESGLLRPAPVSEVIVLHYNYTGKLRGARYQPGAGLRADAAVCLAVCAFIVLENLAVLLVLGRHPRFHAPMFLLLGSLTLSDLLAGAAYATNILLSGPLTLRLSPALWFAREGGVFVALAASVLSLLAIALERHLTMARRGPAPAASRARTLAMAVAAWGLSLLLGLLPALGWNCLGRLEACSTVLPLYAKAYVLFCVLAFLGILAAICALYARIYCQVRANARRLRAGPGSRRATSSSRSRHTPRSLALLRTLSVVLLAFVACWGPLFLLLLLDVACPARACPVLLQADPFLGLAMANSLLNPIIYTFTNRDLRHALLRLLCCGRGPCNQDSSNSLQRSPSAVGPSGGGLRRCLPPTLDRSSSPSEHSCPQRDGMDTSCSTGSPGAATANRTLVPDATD
T3 sequence (O95136 whole entry): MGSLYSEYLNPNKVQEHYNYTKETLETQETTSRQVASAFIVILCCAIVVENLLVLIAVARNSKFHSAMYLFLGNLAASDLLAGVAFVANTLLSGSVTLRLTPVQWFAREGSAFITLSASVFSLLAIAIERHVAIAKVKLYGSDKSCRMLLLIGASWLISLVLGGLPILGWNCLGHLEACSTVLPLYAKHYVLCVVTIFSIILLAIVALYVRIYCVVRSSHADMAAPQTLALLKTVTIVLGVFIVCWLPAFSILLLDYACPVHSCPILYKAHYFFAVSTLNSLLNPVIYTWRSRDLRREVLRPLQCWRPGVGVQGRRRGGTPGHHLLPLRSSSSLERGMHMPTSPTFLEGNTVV
Chain of EDG6 receptor (O95977 whole entry): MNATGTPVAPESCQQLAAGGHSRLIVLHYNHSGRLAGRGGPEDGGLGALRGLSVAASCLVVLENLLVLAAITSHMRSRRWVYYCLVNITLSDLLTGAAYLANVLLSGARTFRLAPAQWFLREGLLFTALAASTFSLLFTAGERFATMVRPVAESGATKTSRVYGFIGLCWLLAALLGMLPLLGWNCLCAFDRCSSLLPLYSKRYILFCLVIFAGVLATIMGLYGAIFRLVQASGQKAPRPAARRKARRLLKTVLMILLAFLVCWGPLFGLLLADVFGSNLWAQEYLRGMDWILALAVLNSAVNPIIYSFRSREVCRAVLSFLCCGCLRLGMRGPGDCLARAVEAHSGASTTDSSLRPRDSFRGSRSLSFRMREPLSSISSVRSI

Compound: CCCCCCCCCCCCCCC[C@@H](O)[C@@H](N)COP(=O)(O)O [dHS1P, dihydro sphingosine 1-phosphate]
- EDG8-mediated increase in intracellular Ca2+ by lysophospholipid mediators (human EDG8 [1]): evoked [Ca^2+]i increases in concentrations of 100 and 1000 nM

Compound: lysophosphatidic acid [LPA]
- EDG8-mediated increase in intracellular Ca2+ by lysophospholipid mediators (human EDG8 [1]): evoked [Ca^2+]i increases in concentrations of 100 and 1000 nM

- Effect on [Ca2+]i mobilization during preincubation period (rat EDG8): did not show any effect
- Effect on [Ca2+]i mobilization during preincubation period (human EDG8 [2]): did not show any effect
Compound: Cc1ccc(C(=O)Nc2ccc(S(=O)(=O)O)c3cc(S(=O)(=O)O)cc(S(=O)(=O)O)c23)cc1NC(=O)c1cccc(NC(=O)Nc2cccc(C(=O)Nc3cc(C(=O)Nc4ccc(S(=O)(=O)O)c5cc(S(=O)(=O)O)cc(S(=O)(=O)O)c45)ccc3C)c2)c1 [suramin]

Compound: CCCCCCCCCCCCC/C=C/[C@@H](O)[C@@H](N)COP(=O)([O-])OCC[N+](C)(C)C [SPC, sphingosylphosphorylcholine]
- EDG8-mediated increase in intracellular Ca2+ by lysophospholipid mediators (human EDG8 [1]): failed to generate any significant response in concentrations up to 1 μM

- S1P-induced [Ca2+]i mobilization via EDG3 (EDG3 receptor): mobilize [Ca^2+]i in response to S1P
- S1P-induced [Ca2+]i mobilization via EDG5 (EDG5 receptor): mobilize [Ca^2+]i in response to S1P
- S1P-induced [Ca2+]i mobilization via EDG1 (EDG1 receptor): mobilize [Ca^2+]i in response to S1P
- EDG8-mediated increase in intracellular Ca2+ by lysophospholipid mediators (human EDG8 [1]): most potent activator of EDG8
- S1P-induced Ca2+ mobilization via EDG8 (human EDG8 [1]; CHO cells, EDG8 cotransfected with Gα16 or Gαqi5, 10, 100 and 1000 nM): gained the ability to mobilize Ca^2+
- S1P-induced [Ca2+]i release via EDG8 (human EDG8 [1]; CHO cells, EDG8 without cotransfected G protein α subunit, 10, 100 and 1000 nM): did not release [Ca^2+]i
Compound: CCCCCCCCCCCCC/C=C/[C@@H](O)[C@@H](N)COP(=O)(O)O [S1P, sphingosine 1-phosphate]
- S1P-induced [Ca2+]i mobilization via EDG6 (EDG6 receptor): failed to detect a significant Ca^2+ increase above basal levels
- S1P-induced rise in intracellular Ca2+ (CHO cells; CHO cells transfected with empty vector DNA, 10, 100, 1000 nM): None of the applied S1P concentrations was capable of eliciting significant rises in intracellular Ca^2+
- S1P-induced increase in [Ca2+]i (CHO cells; Gqi5- and G16-transfected CHO cells, no EDG receptor): did not give rise to significant increases in [Ca^2+]i

Compound: lysophosphatidylcholine [LPC]
- EDG8-mediated increase in intracellular Ca2+ by lysophospholipid mediators (human EDG8 [1]): failed to generate any significant response in concentrations up to 1 μM
